The source of these data is patent publication US11053251B2, “GPR35 modulators” (Prometheus Biosciences, Inc., priority 2019, dated 2021).

The target of the first experiment is Human GPR35 (Homo sapiens, UniProt Q9HC97, S294R). Description: Alternative Beta-Arrestin Assay (JumpIn 294R Tango U2OS cells, LiveBLAzer-FRET B/G). The class given is cell-based. The conditions noted are these: Human GPR35 expressing JumpIn 294R Tango U2OS cells, 5 hours treatment. On the procedure: Human GPR35 expressing JumpIn (Thermo Fisher) 294R Tango U2OS cells were plated in 384-well format in clear bottom plates at a cell density of 10,000 cells/well and allowed to grow overnight. The next day, cells were treated with serially diluted test compounds for 5 hours. LiveBLAzer-FRET B/G (CCF4-AM) detection reagents were then added and cells were allowed to incubate for 2 hours before reading plates on a BioTek Cytation 5 plate reader. Zaprinast was used as a positive control for dose-response curves. In order to determine EC50 values, data w ere fit to a four-parameter dose-response curves.
Sequence of Human GPR35 (Q9HC97 whole entry S294R): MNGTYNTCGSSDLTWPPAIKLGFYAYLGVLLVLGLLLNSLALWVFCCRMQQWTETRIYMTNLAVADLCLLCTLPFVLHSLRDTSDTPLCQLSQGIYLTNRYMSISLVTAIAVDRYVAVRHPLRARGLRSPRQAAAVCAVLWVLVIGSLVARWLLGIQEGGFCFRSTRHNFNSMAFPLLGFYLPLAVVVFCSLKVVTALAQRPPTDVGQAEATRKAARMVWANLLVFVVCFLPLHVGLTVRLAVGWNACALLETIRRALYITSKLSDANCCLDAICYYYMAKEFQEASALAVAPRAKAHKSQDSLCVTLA
`CCOc1cc(-c2cc(F)c(F)c(O[C@@H](C)C(=O)O)c2)ccc1-c1nc2[nH]nnc2c(=O)[nH]1` (single isomer, unassigned) [Compound 261]: the EC50 (as a rule, the concentration needed to bring the measured effect to its halfway point) was not above 10 µM.

Compound `CCOc1cc(-c2ccc(C(=O)O)c(OC)c2)ccc1-c1nc2[nH]nnc2c(=O)[nH]1` [Compound 206, 3′-Ethoxy-3-methoxy-4′-(7-oxo-6,7-dihydro-3H-[1,2,3]triazolo[4,5-d]pyrimidin-5-yl)-[1,1′-biphenyl]-4-carboxylic acid] registered an EC50 not above 10 µM.

For `CCOc1cc(-c2cccc(O[C@H](CC)C(=O)O)c2)ccc1-c1nc2[nH]nnc2c(=O)[nH]1` (single isomer, unassigned) [Compound 253], the EC50 was not above 10 µM.

The compound `CCOC(=O)C(C)c1cccc(-c2ccc(-c3nc4[nH]nnc4c(=O)[nH]3)c(OCC)c2)c1` (stereo not drawn) [Compound 296, ethyl 2-(3′-ethoxy-4′-(7-oxo-6,7-dihydro-3H-[1,2,3]triazolo[4,5-d]pyrimidin-5-yl)-[1,1′-biphenyl]-3-yl)propanoate] yielded an EC50 not above 10 µM.

In the case of `O=c1[nH]c(-c2ccc(-c3ccc(-c4nnn[nH]4)cc3)cc2OC2CCCC2)nc2[nH]nnc12` [Compound 273, 5-(3-(cyclopentyloxy)-4′-(1H-tetrazol-5-yl)-[1,1′-biphenyl]-4-yl)-3,6-dihydro-7H-[1,2,3]triazolo[4,5-d]pyrimidin-7-one], the EC50 is not above 10 µM.

`CCOc1cc(-c2ccc(C(=O)O)c(OCC(=O)O)c2)ccc1-c1nc2[nH]nnc2c(=O)[nH]1` [Compound 220, 3-(Carboxymethoxy)-3′-ethoxy-4′-(7-oxo-6,7-dihydro-3H-[1,2,3]triazolo[4,5-d]pyrimidin-5-yl)-[1,1′-biphenyl]-4-carboxylic acid] gave an EC50 not above 10 µM.

`CCOc1cc(-c2ccc(O)c(CCC(=O)O)c2)ccc1-c1nc2[nH]nnc2c(=O)[nH]1` [Compound 309, 3-(3′-ethoxy-4-hydroxy-4′-(7-oxo-6,7-dihydro-3H-[1,2,3]triazolo[4,5-d]pyrimidin-5-yl)-[1,1′-biphenyl]-3-yl)propanoic acid] came in with a concentration for a half-maximal effect (EC50) not above 10 µM.

On to `CCOc1cc(-c2ccc(C(=O)O)c(C)c2)ccc1-c1nc2[nH]nnc2c(=O)[nH]1` [Compound 207, 3′-Ethoxy-3-methyl-4′-(7-oxo-6,7-dihydro-3H-[1,2,3]triazolo[4,5-d]pyrimidin-5-yl)-[1,1′-biphenyl]-4-carboxylic acid], for which the EC50 was not above 10 µM.

In turn, `CCOc1cc(-c2ccc(OC(C)C)c(CC(C)C(=O)O)c2)ccc1-c1nc2[nH]nnc2c(=O)[nH]1` (stereo not drawn) [Compound 302, 3-(3′-ethoxy-4-isopropoxy-4′-(7-oxo-6,7-dihydro-3H-[1,2,3]triazolo[4,5-d]pyrimidin-5-yl)-[1,1′-biphenyl]-3-yl)-2-methylpropanoic acid] came in with an EC50 not above 10 µM.

In turn, `CCOc1cc(-c2cccc(CC(C)(C)C(=O)O)c2)ccc1-c1nc2[nH]nnc2c(=O)[nH]1` [Compound 243, 3-(3′-ethoxy-4′-(7-oxo-6,7-dihydro-3H-[1,2,3]triazolo[4,5-d]pyrimidin-5-yl)-[1,1′-biphenyl]-3-yl)-2,2-dimethylpropanoic acid] came in with an EC50 not above 10 µM.

`CCOc1cc(-c2cccc([C@H]3C[C@H]3C(=O)O)c2)ccc1-c1nc2[nH]nnc2c(=O)[nH]1` (single isomer, unassigned) [Compound 308, cis-2-(3′-ethoxy-4′-(7-oxo-6,7-dihydro-3H-[1,2,3]triazolo[4,5-d]pyrimidin-5-yl)-[1,1′-biphenyl]-3-yl)cyclopropane-1-carboxylic acid]: the EC50 was not above 10 µM.

`CCOc1cc(-c2cccc([C@@H]3C[C@@H]3C(=O)O)c2)ccc1-c1nc2[nH]nnc2c(=O)[nH]1` (racemic) [Compound 306, rac-cis-2-(3′-ethoxy-4′-(7-oxo-6,7-dihydro-3H-[1,2,3]triazolo[4,5-d]pyrimidin-5-yl)-[1,1′-biphenyl]-3-yl)cyclopropane-1-carboxylic acid] yielded an EC50 not above 10 µM.

The compound `CCOc1cc(-c2ccc(OCCN3CCCC3)c(/C=C/C(=O)O)c2)ccc1-c1nc2[nH]nnc2c(=O)[nH]1` [Compound 317, (E)-3-(3′-ethoxy-4′-(7-oxo-6,7-dihydro-3H-[1,2,3]triazolo[4,5-d]pyrimidin-5-yl)-4-(2-(pyrrolidin-1-yl)ethoxy)-[1,1′-biphenyl]-3-yl)acrylic acid] returned an EC50 not above 10 µM.

For `CCOc1cc(-c2cccc(C[C@H](NC(C)=O)C(=O)O)c2)ccc1-c1nc2[nH]nnc2c(=O)[nH]1` [Compound 293, (S)-2-acetamido-3-(3′-ethoxy-4′-(7-oxo-6,7-dihydro-3H-[1,2,3]triazolo[4,5-d]pyrimidin-5-yl)-[1,1′-biphenyl]-3-yl)propanoic acid], the EC50 was not above 10 µM.

On to `CCOc1cc(-c2ccc(O)c(NCC(=O)O)c2)ccc1-c1nc2[nH]nnc2c(=O)[nH]1` [Compound 222, (3′-Ethoxy-4-hydroxy-4′-(7-oxo-6,7-dihydro-3H-[1,2,3]triazolo[4,5-d]pyrimidin-5-yl)-[1,1′-biphenyl]-3-yl)glycine], for which the EC50 is not above 10 µM.

As for `CCOc1cc(-c2cc(O)cc(O[C@@H](C)C(=O)O)c2)ccc1-c1nc2[nH]nnc2c(=O)[nH]1` (single isomer, unassigned) [Compound 256], the EC50 is not above 10 µM.

Turning to `CCOc1cc(-c2cccc(CC(C)C(=O)O)c2)ccc1-c1nc2[nH]nnc2c(=O)[nH]1` (stereo not drawn) [Compound 238, 3-(3′-ethoxy-4′-(7-oxo-6,7-dihydro-3H-[1,2,3]triazolo[4,5-d]pyrimidin-5-yl)-[1,1′-biphenyl]-3-yl)-2-methylpropanoic acid], the concentration for a half-maximal effect (EC50) was not above 10 µM.

The compound `CCOc1cc(-c2ccc(C(=O)O)c(N)c2)ccc1-c1nc2[nH]nnc2c(=O)[nH]1` [Compound 204, 3-Amino-3′-ethoxy-4′-(7-oxo-6,7-dihydro-3H-[1,2,3]triazolo[4,5-d]pyrimidin-5-yl)-[1,1′-biphenyl]-4-carboxylic acid] registered an EC50 not above 10 µM.

In turn, `CC(C)OC(=O)COc1cccc(-c2ccc(-c3nc4[nH]nnc4c(=O)[nH]3)c(OC3CCCC3)c2)c1` [Compound 271, isopropyl 2-((3′-(cyclopentyloxy)-4′-(7-oxo-6,7-dihydro-3H-[1,2,3]triazolo[4,5-d]pyrimidin-5-yl)-[1,1′-biphenyl]-3-yl)oxy)acetate] showed an EC50 not above 10 µM.

Consider `CN(C)CCCOc1cc(-c2ccc(C(=O)O)cc2)ccc1-c1nc2[nH]nnc2c(=O)[nH]1` [Compound 229, 3′-(3-(Dimethylamino)propoxy)-4′-(7-oxo-6,7-dihydro-3H-[1,2,3]triazolo[4,5-d]pyrimidin-5-yl)-[1,1′-biphenyl]-4-carboxylic acid], for which the EC50 fell in the range of 10 to 50 µM.

`CCOc1cc(-c2cc(F)c(F)c(O[C@H](C)C(=O)O)c2)ccc1-c1nc2[nH]nnc2c(=O)[nH]1` (single isomer, unassigned) [Compound 260]: the EC50 is not above 10 µM.

In turn, `CCOc1cc(-c2cc(F)cc(O[C@H](C)C(=O)O)c2)ccc1-c1nc2[nH]nnc2c(=O)[nH]1` (single isomer, unassigned) [Compound 262] displayed an EC50 not above 10 µM.

`CCOC(=O)COc1cccc(-c2ccc(-c3nc4[nH]nnc4c(=O)[nH]3)c(OCC)c2)c1` [Compound 120, Ethyl 2-((3′-ethoxy-4′-(7-oxo-6,7-dihydro-3H-[1,2,3]triazolo[4,5-d]pyrimidin-5-yl)-[1,1′-biphenyl]-3-yl)oxy)acetate] yielded an EC50 not above 10 µM.

The compound `CCOc1cc(-c2cccc(C[C@H](OC)C(=O)O)c2)ccc1-c1nc2[nH]nnc2c(=O)[nH]1` [Compound 283, (S)-3-(3′-ethoxy-4′-(7-oxo-6,7-dihydro-3H-[1,2,3]triazolo[4,5-d]pyrimidin-5-yl)-[1,1′-biphenyl]-3-yl)-2-methoxypropanoic acid] displayed an EC50 not above 10 µM.

With `CCOc1cc(-c2cccc(CC(C)C(=O)O)c2)ccc1-c1nc2[nH]nnc2c(=O)[nH]1` (single isomer, unassigned) [Compound 312, 3-(3′-ethoxy-4′-(7-oxo-6,7-dihydro-3H-[1,2,3]triazolo[4,5-d]pyrimidin-5-yl)-[1,1′-biphenyl]-3-yl)-2-methylpropanoic acid], the EC50 was not above 10 µM.

On to `CCOc1cc(-c2ccc(OC)c(CC(C)C(=O)O)c2)ccc1-c1nc2[nH]nnc2c(=O)[nH]1` (stereo not drawn) [Compound 316, 3-(3′-ethoxy-4-methoxy-4′-(7-oxo-6,7-dihydro-3H-[1,2,3]triazolo[4,5-d]pyrimidin-5-yl)-[1,1′-biphenyl]-3-yl)-2-methylpropanoic acid], for which the EC50 is not above 10 µM.

Compound `CCOc1cc(-c2ccc(OCCN3CCCC3)c(CCC(=O)O)c2)ccc1-c1nc2[nH]nnc2c(=O)[nH]1` [Compound 318, 3-(3′-ethoxy-4′-(7-oxo-6,7-dihydro-3H-[1,2,3]triazolo[4,5-d]pyrimidin-5-yl)-4-(2-(pyrrolidin-1-yl)ethoxy)-[1,1′-biphenyl]-3-yl)propanoic acid] gave an EC50 not above 10 µM.

`CCOc1cc(-c2ccc(NC(C)=O)c(C(=O)O)c2)ccc1-c1nc2[nH]nnc2c(=O)[nH]1` [Compound 184, 4-acetamido-3′-ethoxy-4′-(7-oxo-6,7-dihydro-3H-[1,2,3]triazolo[4,5-d]pyrimidin-5-yl)-[1,1′-biphenyl]-3-carboxylic acid] had an EC50 not above 10 µM.

With `CCOc1cc(-c2ccc(C(=O)O)c(O)c2)ccc1-c1nc2[nH]nnc2c(=O)[nH]1` [Compound 208, 3′-Ethoxy-3-hydroxy-4′-(7-oxo-6,7-dihydro-3H-[1,2,3]triazolo[4,5-d]pyrimidin-5-yl)-[1,1′-biphenyl]-4-carboxylic acid], the EC50 was not above 10 µM.

Staying with this experiment, now noted: at 50 μM; Table 2.
On to `CN(C)CCOc1cc(-c2ccc(C(=O)O)cc2)ccc1-c1nc2[nH]nnc2c(=O)[nH]1` [Compound 228, 3′-(2-(Dimethylamino)ethoxy)-4′-(7-oxo-6,7-dihydro-3H-[1,2,3]triazolo[4,5-d]pyrimidin-5-yl)-[1,1′-biphenyl]-4-carboxylic acid], for which the “% inhibition at 50 μM” value amounted to 16% inhibition at.
